According to the supplement of paper PMC8149375:

Legend:
Details in all cases: treatment: drug + dasatinib (fixed dose, not stated); 5 days
[1] = tested on: A498; test: AUC of dose-response viability curve, drug + dasatinib, normalised to DMSO (arbitrary (AUC of normalised viability)); higher = less growth inhibition
Method: (§1)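 Primary HTS combination arm: 8 RCC cell lines treated with 8 doses (up to 10 uM) of each library drug plus a fixed dose of dasatinib (dose not stated) for 5 days; viability read by CellTiter-Glo and normalised to DMSO. GI50 was fitted with XLfit, AUC is the area under the dose-response curve, and minimum viability is the lowest fraction of DMSO viability across doses.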

[2] = tested on: ACHN; test: as above
Method: as §1

[3] = tested on: 769-P; test: as above
Method: as §1

[4] = tested on: UO-31; test: as above
Method: as §1

[5] = tested on: SN12C; test: as above
Method: as §1

[6] = tested on: 786-O; test: as above
Method: as §1

[7] = tested on: CAKI-1; test: as above
Method: as §1

[8] = tested on: TK-10; test: as above
Method: as §1

[9] = tested on: A498; test: minimum viability across doses, drug + dasatinib, relative to DMSO (fraction); higher = less growth inhibition
Method: as §1

[10] = tested on: ACHN; test: as above
Method: as §1

[11] = tested on: 769-P; test: as above
Method: as §1

[12] = tested on: UO-31; test: as above
Method: as §1

[13] = tested on: SN12C; test: as above
Method: as §1

[14] = tested on: 786-O; test: as above
Method: as §1

[15] = tested on: CAKI-1; test: as above
Method: as §1

[16] = tested on: TK-10; test: as above
Method: as §1

[17] = tested on: A498; test: GI50 of drug in presence of dasatinib; higher = less potent
Method: as §1

[18] = tested on: ACHN; test: as above
Method: as §1

[19] = tested on: 769-P; test: as above
Method: as §1

[20] = tested on: UO-31; test: as above
Method: as §1

[21] = tested on: SN12C; test: as above
Method: as §1

[22] = tested on: 786-O; test: as above
Method: as §1

[23] = tested on: CAKI-1; test: as above
Method: as §1

[24] = tested on: TK-10; test: as above
Method: as §1

Row | SMILES | GI50 of drug [18] | GI50 of drug [22] | AUC of dose-response viability curve [1] | AUC of dose-response viability curve [2] | AUC of dose-response viability curve [3] | AUC of dose-response viability curve [4] | AUC of dose-response viability curve [5] | AUC of dose-response viability curve [6] | AUC of dose-response viability curve [7] | AUC of dose-response viability curve [8] | minimum viability across doses [9] | minimum viability across doses [10] | minimum viability across doses [11] | minimum viability across doses [12] | minimum viability across doses [13] | minimum viability across doses [14] | minimum viability across doses [15] | minimum viability across doses [16] | GI50 of drug [17] | GI50 of drug [19] | GI50 of drug [20] | GI50 of drug [21] | GI50 of drug [23] | GI50 of drug [24]
1 | COc1cc(Nc2ncc(F)c(Nc3ccc4c(n3)N(COP(=O)([O-])[O-])C(=O)C(C)(C)O4)n2)cc(OC)c1OC.[Na+].[Na+] + Cc1nc(Nc2ncc(C(=O)Nc3c(C)cccc3Cl)s2)cc(N2CCN(CCO)CC2)n1 [dasatinib] | 68.7 nM | 419 nM | 3.45 | 1.48 | 2.15 | 2.8 | 2.03 | 1.78 | 1.52 | 2.17 | 0.671 | 0.0433 | 0.0654 | 0.0117 | 0.202 | 0.245 | 0.00358 | 0.304 | > 10000 nM | 1630 nM | 1580 nM | 793 nM | 161 nM | 2070 nM
2 | Nc1nc(N)c2nc(-c3cccc(O)c3)cnc2n1 + Cc1nc(Nc2ncc(C(=O)Nc3c(C)cccc3Cl)s2)cc(N2CCN(CCO)CC2)n1 [dasatinib] | 285 nM | 220 nM | 2.98 | 1.67 | 2.54 | 3.5 | 2.15 | 1.84 | 2.17 | 2.4 | 0.222 | 0.16 | 0.647 | 0.0458 | 0.183 | 0.0115 | 0.0946 | 0.269 | 4140 nM | > 10000 nM | 2960 nM | 1410 nM | 1760 nM | 3000 nM
3 | CCN1CCN(C(=O)Cc2ccc(Nc3ncc(F)c(Nc4ccc(C(=O)Nc5ccccc5Cl)cc4)n3)cc2)CC1 [Aurora A Inhibitor I] + Cc1nc(Nc2ncc(C(=O)Nc3c(C)cccc3Cl)s2)cc(N2CCN(CCO)CC2)n1 [dasatinib] | 130 nM | 164 nM | 3.16 | 1.53 | 1.98 | 2.58 | 2.09 | 1.57 | 1.63 | 2.18 | 0.53 | 0.0307 | 0.0246 | 0.0547 | 0.00416 | 0.0991 | 0.00201 | 0.275 | 8980 nM | 652 nM | 552 nM | 1190 nM | 281 nM | 1010 nM
4 | COc1cc2ncnc(Nc3cccc(Cl)c3)c2cc1OC [AG-1478 (Tyrphostin AG-1478)] + Cc1nc(Nc2ncc(C(=O)Nc3c(C)cccc3Cl)s2)cc(N2CCN(CCO)CC2)n1 [dasatinib] | 20.9 nM | 37 nM | 3.95 | 1.39 | 1.67 | 3.65 | 2.37 | 1.84 | 2.2 | 1.93 | 0.961 | 0.236 | 0.3 | 0.586 | 0.646 | 0.284 | 0.451 | 0.363 | > 10000 nM | 107 nM | > 10000 nM | > 10000 nM | 7730 nM | 726 nM
5 | COc1ncc(-c2ccc3nccc(-c4ccnnc4)c3c2)cc1NS(=O)(=O)c1ccc(F)cc1F + Cc1nc(Nc2ncc(C(=O)Nc3c(C)cccc3Cl)s2)cc(N2CCN(CCO)CC2)n1 [dasatinib] | 8.21 nM | 4.97 nM | 1.82 | 0.822 | 0.957 | 0.993 | 1.1 | 0.564 | 0.66 | 0.955 | 0.158 | 0.0717 | 0.0228 | 0.00632 | 0.104 | 0.00295 | 0.00939 | 0.0271 | 168 nM | 18.4 nM | 28.1 nM | 19 nM | 7.86 nM | 16.5 nM
6 | COc1cc(Nc2ncc(F)c(Nc3ccc4c(n3)NC(=O)C(C)(C)O4)n2)cc(OC)c1OC [R406(free base)] + Cc1nc(Nc2ncc(C(=O)Nc3c(C)cccc3Cl)s2)cc(N2CCN(CCO)CC2)n1 [dasatinib] | 32 nM | 571 nM | 3.18 | 1.11 | 2.08 | 3.16 | 2.05 | 1.77 | 1.54 | 2.19 | 0.591 | 0.0361 | 0.13 | 0.0124 | 0.189 | 0.168 | 0.0291 | 0.348 | > 10000 nM | 1530 nM | 1610 nM | 1390 nM | 231 nM | 1380 nM

Now from value to compound, other results behind:

Row | GI50 of drug [18] | GI50 of drug [22] | SMILES | AUC of dose-response viability curve [1] | AUC of dose-response viability curve [2] | AUC of dose-response viability curve [3] | AUC of dose-response viability curve [4] | AUC of dose-response viability curve [5] | AUC of dose-response viability curve [6] | AUC of dose-response viability curve [7] | AUC of dose-response viability curve [8] | minimum viability across doses [9] | minimum viability across doses [10] | minimum viability across doses [11] | minimum viability across doses [12] | minimum viability across doses [13] | minimum viability across doses [14] | minimum viability across doses [15] | minimum viability across doses [16] | GI50 of drug [17] | GI50 of drug [19] | GI50 of drug [20] | GI50 of drug [21] | GI50 of drug [23] | GI50 of drug [24]
7 | 342 nM | 4460 nM | O=C(NOCC1CC1)c1ccc(F)c(F)c1Nc1ccc(I)cc1Cl + Cc1nc(Nc2ncc(C(=O)Nc3c(C)cccc3Cl)s2)cc(N2CCN(CCO)CC2)n1 [dasatinib] | 2.51 | 1.8 | 2.12 | 2.72 | 2.07 | 2.46 | 2.04 | 2.4 | 0.306 | 0.224 | 0.197 | 0.174 | 0.298 | 0.431 | 0.13 | 0.367 | 3190 nM | 1780 nM | 2610 nM | 1520 nM | 1480 nM | 4600 nM
8 | 112 nM | 496 nM | COc1cc2c(Oc3ccc(NC(=O)C4(C(=O)Nc5ccc(F)cc5)CC4)cc3F)ccnc2cc1OCCCN1CCOCC1 + Cc1nc(Nc2ncc(C(=O)Nc3c(C)cccc3Cl)s2)cc(N2CCN(CCO)CC2)n1 [dasatinib] | 2.47 | 1.36 | 1.78 | 1.95 | 1.56 | 1.65 | 1.48 | 1.94 | 0.0345 | 0.00242 | 0.00976 | 0.011 | 0.0105 | 0.00858 | 0.00437 | 0.00508 | 1430 nM | 458 nM | 393 nM | 226 nM | 135 nM | 558 nM
9 | > 10000 nM | > 10000 nM | COc1cccc(-c2cc(=O)c3ccccc3o2)c1N + Cc1nc(Nc2ncc(C(=O)Nc3c(C)cccc3Cl)s2)cc(N2CCN(CCO)CC2)n1 [dasatinib] | 3.37 | 2.01 | 2.48 | 3.99 | 2.49 | 2.58 | 2.27 | 2.57 | 0.908 | 0.511 | 0.645 | 1.08 | 0.658 | 0.541 | 0.612 | 0.655 | > 10000 nM | > 10000 nM | > 10000 nM | > 10000 nM | > 10000 nM | > 10000 nM
10 | 78.5 nM | 8580 nM | O=C(c1ccc(/C=C/c2n[nH]c3ccccc23)cc1)N1CCNCC1 [KW 2449] + Cc1nc(Nc2ncc(C(=O)Nc3c(C)cccc3Cl)s2)cc(N2CCN(CCO)CC2)n1 [dasatinib] | 3.27 | 1.64 | 2.33 | 3.7 | 2.05 | 2.58 | 2.03 | 2.89 | 0.521 | 0.159 | 0.162 | 0.0258 | 0.0456 | 0.425 | 0.15 | 0.611 | > 10000 nM | 2780 nM | 3520 nM | 1240 nM | 2540 nM | > 10000 nM
11 | 102 nM | 118 nM | FC(F)c1nc2ccccc2n1-c1nc(N2CCOCC2)nc(N2CCOCC2)n1 [ZSTK474] + Cc1nc(Nc2ncc(C(=O)Nc3c(C)cccc3Cl)s2)cc(N2CCN(CCO)CC2)n1 [dasatinib] | 2.35 | 1.45 | 1.61 | 1.73 | 1.99 | 1.61 | 1.37 | 1.97 | 0.0549 | 0.0709 | 0.0686 | 0.00787 | 0.159 | 0.00535 | 0.0415 | 0.115 | 1090 nM | 169 nM | 194 nM | 420 nM | 44.5 nM | 328 nM
12 | 91.2 nM | 524 nM | c1cncc(CN2CCC(n3ncc4c(N5CCOCC5)nc(-c5ccc6[nH]ccc6c5)nc43)CC2)c1 [WAY-600] + Cc1nc(Nc2ncc(C(=O)Nc3c(C)cccc3Cl)s2)cc(N2CCN(CCO)CC2)n1 [dasatinib] | 3.1 | 1.39 | 1.93 | 2.62 | 1.85 | 1.56 | 1.63 | 1.83 | 0.0551 | 0.0438 | 0.0156 | 0.0101 | 0.119 | 0.00323 | 0.0191 | 0.045 | 4490 nM | 688 nM | 1100 nM | 523 nM | 306 nM | 433 nM
13 | 5.43 nM | > 10000 nM | COCC[n+]1c2c(n(Cc3cnccn3)c1C)C(=O)c1ccccc1C2=O [YM155] + Cc1nc(Nc2ncc(C(=O)Nc3c(C)cccc3Cl)s2)cc(N2CCN(CCO)CC2)n1 [dasatinib] | 0.476 | 0.479 | 0.63 | 1.3 | 0.503 | 0.302 | 0.385 | 0.933 | 0.00896 | 0.00126 | 0.00674 | 0.00698 | 0.00231 | 0.00497 | 0.00438 | 0.0206 | 8.38 nM | 10.7 nM | 45 nM | 8.39 nM | 4.86 nM | 14.4 nM
14 | > 10000 nM | > 10000 nM | N#Cc1c(O)c2c(-c3ccc(-c4ccccc4O)cc3)csc2[nH]c1=O + Cc1nc(Nc2ncc(C(=O)Nc3c(C)cccc3Cl)s2)cc(N2CCN(CCO)CC2)n1 [dasatinib] | 3.43 | 2.25 | 2.56 | 4.43 | 2.35 | 2.63 | 2.38 | 2.78 | 0.86 | 0.595 | 0.683 | 1.02 | 0.634 | 0.6 | 0.655 | 0.705 | > 10000 nM | > 10000 nM | > 10000 nM | > 10000 nM | > 10000 nM | > 10000 nM
